AC40 data for 33 compounds are collected here from PubChem BioAssay AID652053 (Broad Institute, 2013).

The assay concerns Huh7 psiCHECK-miR122 Renilla luciferase reporter, 48 h. Description: suppression of miR-122 activity, Renilla luciferase sensor – cell-based, Huh7 psiCHECK-miR122, cherry-pick, dose response (AID 652053).

As to `CC(C)c1ccc(S(=O)(=O)Nc2ccc3c(c2)OCO3)cc1`, the AC40 was 2.71 µM. For `CCOC(=O)CNS(=O)(=O)c1cc(-c2nnc(Nc3ccc4c(c3)OCO4)c3ccccc23)ccc1C`, the AC40 was 2.63 µM. With `Cc1cc2c(cc1S(=O)(=O)NCCc1ccccc1)NC(=O)CO2`, the AC40 was 4.41 µM.

Turning to `Cc1ccc(S(=O)(=O)N/N=C/c2ccc(OCC(=O)Nc3ccccc3Cl)cc2)cc1`, the AC40 is 5.89 µM. The figure for `CCn1nccc1C(=O)Nc1ccc(S(=O)(=O)NC23CC4CC(CC(C4)C2)C3)cc1` is 2.24 µM; for `C[C@@H]1CN([C@@H](C)CO)C(=O)c2cc(NC(=O)Nc3ccccc3)ccc2O[C@@H]1CN(C)Cc1ccc(C(=O)Nc2ccccc2N)cc1` it is 13.4 µM; for `Cc1cccc(-c2nn(-c3ccccc3)cc2C(=O)Nc2cccc(S(=O)(=O)NC3=NCCC3)c2)c1` it is 18.3 µM. Turning to `Cc1ccccc1C(=O)Nc1ccc(Br)c(C)n1`, the AC40 is 3.17 µM. On to `Cc1c(C(=O)N2CCCCC2)c(S(=O)(=O)Nc2cccc(Br)c2)c(C)n1C`, for which the AC40 was 1.44 µM. For `Cc1cccc(NS(=O)(=O)c2ccc(-c3cnc(C4CC4)o3)cc2)c1`, the AC40 was 2.13 µM.

As to `COc1ccccc1NS(=O)(=O)c1cc(NC(=O)CCC(=O)c2cccs2)ccc1Cl`, the AC40 is 21.7 µM. The figure for `C[C@H]1CN([C@@H](C)CO)C(=O)Cc2cc(NC(=O)Nc3ccc(C(F)(F)F)cc3)ccc2O[C@H]1CN(C)S(=O)(=O)c1ccc(F)cc1` is 14 µM; for `Cc1ccc(S(=O)(=O)Nc2ccc3c(c2)CCC3)cc1` it is 6.54 µM; for `C[C@H](CO)N1C[C@H](C)[C@@H](CN(C)Cc2ccccc2)Oc2c(NS(=O)(=O)c3ccccc3)cccc2C1=O` it is 3.64 µM. For the compound `CCOc1cc(N2CCOCC2)c(OCC)cc1NS(=O)(=O)c1ccc(Cl)s1`, the AC40 was 32.9 µM. The figure for `COc1ccc(C)cc1S(=O)(=O)NC1CCCCC1` is 1.31 µM; for `O=C(Nc1cccc(S(=O)(=O)Nc2ccc(Cl)cc2)c1)c1ccccn1` it is 1.8 µM; for `Cc1cc(C)c(-n2nnnc2SCC(=O)c2cccs2)c(C)c1` it is 14.9 µM.

As to `COc1ccc(NS(=O)(=O)c2ccc(Cl)c(N)c2)cc1Br`, the AC40 is 3.88 µM.

With `C[C@@H]1CN([C@@H](C)CO)C(=O)c2cccc(NC(=O)c3ccc(-c4nccs4)cc3)c2O[C@@H]1CN(C)Cc1ccc(C(=O)Nc2ccccc2N)cc1`, the AC40 was 4.9 µM. Turning to `COCC#Cc1ccc2c(c1)O[C@H](CN(C)Cc1ccc3c(c1)OCO3)[C@@H](C)CN([C@@H](C)CO)S2(=O)=O`, the AC40 is 13.8 µM. As for `CN1C(=O)c2cc(NC(=O)NCc3ccccc3)ccc2OC[C@@H]2O[C@H](CC(=O)NCC3CCCCC3)CC[C@@H]21`, the figure is 0.358 µM. As for `CC(=Nc1ccccc1)C1=C(O)C(Cc2cccc(F)c2)NC1=O` (stereo not drawn), the figure is 3.86 µM; as for `COc1ccc(S(=O)(=O)Nc2ccc(S(=O)(=O)N3CCCCC3)cc2)cc1C`, 2.44 µM. The figure for `Cc1ccc(C(=O)C2Oc3ccccc3C3CC(c4ccc(C)cc4)=NN23)cc1` (stereo not drawn) is 1.17 µM; for `C[C@]12CC[C@H](O)C[C@H]1CC[C@@H]1[C@@H]2CC[C@]2(C)[C@@H](C3=CC(=O)OC3)CC[C@]12O` it is 5.74 µM; for `CN1CCN(C(=O)c2cc3nc(-c4ccccc4)cc(-c4ccccc4)n3n2)CC1` it is 2.23 µM. As to `COc1ccc(S(=O)(=O)NCCc2c(C)nn(C)c2Oc2ccccc2)cc1`, the AC40 was 4.82 µM. For `Cc1ccc(-c2n[nH]c(=O)c3ccccc23)cc1S(=O)(=O)Nc1ccc(F)cc1`, the AC40 was 0.293 µM. As for `C[C@H]1CN([C@@H](C)CO)C(=O)c2cc(N(C)C)ccc2O[C@H]1CN(C)Cc1ccc(C(=O)Nc2ccccc2N)cc1`, the figure is 5.42 µM; as for `Cc1ccc(-c2nn3c(C)nnc3c3ccccc23)cc1S(=O)(=O)NCCN1CCOCC1`, 3.24 µM; as for `CCOc1ccc(-c2cc(N)n(S(=O)(=O)c3ccc(OC)c(OC)c3)n2)cc1`, 4.11 µM. The figure for `O=C(c1cn(Cc2ccccc2)nc1-c1ccc(Cl)cc1)N1CCN(c2ccccn2)CC1` is 3.28 µM.
